Series [1] in a line: In vivo radioactivity distribution experiment of 125I-labeled aurone derivatives in normal mice (Example 2, Table 15). The following applies: tail vein.
Description: (§1) Animals were decapitated at 2, 10, 30 or 60 min after the injection, and the blood was collected. Then, major organs were removed, and weights and radioactivities thereof were measured.
(§2) In vivo radioactivity distribution experiments of ^125I-labeled aurone derivatives were performed using 5-week-old normal mice.
Series [2] has as its target T1, Aβ(1-42) aggregate (Homo sapiens, UniProt P05067).
T1 construct: Amyloid (3 protein (Human, 1-42) [TFA form] was purchased from Peptide Institute, Inc); purchased Peptide Institute, Inc
Description: In vitro binding experiment of [125I]-labeled aurone derivatives using Aβ(1-42) aggregates. To be noted: [125I]-labeled compounds, Ab(1-42) aggregates; for intensity of the binding property to Ab aggregates (order): radioactivity remaining on filter, FIG. 4. The protocol: Aβ aggregates were prepared by dissolving in a buffer containing 10 mM sodium phosphate and 1 mM EDTA (pH 7.4) at a concentration of 0.5 mg/mL and incubating at 37° C. for 42 h. The binding experiment was performed using 12×75 mm borosilicate glass tubes. [^125I]IMPY used for comparison was prepared according to the method described previously (Zhuang Z P, Kung M P, Wilson A, Lee C W, Plossi K, Hou C, Holzman D M, Kung H F. Structure-activity relationship of imidazo[1,2-a]pyridines as ligands for detecting β-amyloid plaques in the brain. J. Med. Chem. 2003, 46(2): 237-43). 900 μL of 10% ethanol solution, 50 μL of [^125I]-labeled aurone derivative with various concentrations (in 10% aqueous ethanol) or 50 μL of [^125I]IMPY, and 50 μL (29 nM) of an Aβ(1-42) aggregate solution were mixed, and the mixture was allowed to stand at room temperature for 3 h. Aβ3 aggregate-bound aurone derivative and nonbound aurone derivative were separated with a Brandel M-24R cell harvester using Whatman GF/B filters. The radioactivities of substances remaining on the filter used for filtration were measured with a γ counter.
FIGS. 4 and 5 show the results of experiments in which aurone derivatives were reacted in the presence and absence of Ab aggregates; the reaction mixture was filtered with a cell harvester; and the remaining radioactivity on the filter was measured. […] The intensity of the binding property increased in the following order: [^125I] Compound 7>[^125I] Compound 12=[^125I] IMPY>[^125I] Compound 14=[^125I] Compound 17>[^125I] Compound 20 (FIG. 4). The binding property to Ab aggregates of those compounds with —NH2, OMe- and OH group in their side chains are lower than the binding property of [^125] IMPY. On the other hand, those compounds with NHMe- and NMe2 group show equal or higher binding property to Ab aggregates compared to the binding property of [^125I] IMPY. […] Among all, the binding of Compound 7 to Ab aggregates was equal or more than the binding of [^125I] IMPY which is clinically tested at present. Therefore, it has become clear that this compound satisfies a critical requirement as an imaging probe for amyloid β.

Series [3] has as its target T2, Ab(1-42) aggregates (Homo sapiens, UniProt P05067).
T2 construct: Ab(1-42) was dissolved in 10 mM phosphate buffer containing 1 mM EDTA (pH 7.4)
Description: Binding inhibition experiment using Ab(1-42) aggregates, inhibition constants (Ki), radioligand [125I](Z)-2-(4-aminobenzylidene)-5-iodobenzofuran-3(2H)-one (Table 14). The following applies: Aβ42 aggregates. The protocol:
Ab(1-42) was dissolved in 10 mM phosphate buffer containing 1 mM EDTA (pH 7.4) to give a concentration of 0.25 mg/mL, and the mixture was incubated at 37° C. for 42 h to thereby prepare Ab(1-42) aggregates.
[…] of 10% EtOH solution, […] of a solution of [^125I](Z)-2-(4-aminobenzylidene)-5-iodobenzofuran-3(2H)-one in 10% ethanol, and […] of a sample solution at various concentrations ([…]) were mixed. Finally, […] of Ab(1-42) aggregate solution was added thereto, and the mixture was allowed to stand at room temperature for 3 h. Ab(1-42) aggregate-bound compounds and nonbound compounds were separated with a Brandel M-24R cell harvester using a Whatman GF/B filter. Radioactivities remaining on the filter were measured with a γ-counter, and inhibition curves were created using Graph Pad Prism 4.0 to calculate inhibition constants (Ki values).
In order to calculate inhibition constants (Ki values) for various aurone derivatives synthesized, binding inhibition experiments were performed using [^125I](Z)-2-(4-aminobenzylidene)-5-iodobenzofuran-3(2H)-one as a radioactive ligand. […] Thus, aurone derivatives have shown a high binding property to amyloid aggregates. No difference in binding property resulting from the length of introduced ethyleneoxy chains was observed.

For series [4] the following is noted: male, ddY, mouse, in vivo, 2 min.
Description: as §1, §2
For series [5], the system named is senile plaques on brain sections from Tg2576 mice. Briefly: Fluorescence staining and immunostaining on brain sections from transgenic mice. The following applies: Tg2576 mouse brain sections, FIG. 9. It is filed as binding. As to the method: As Alzheimer's disease model mouse, Tg2576 mice (20-month-old) were used. Brain tissues were removed and frozen in carboxymethyl cellulose (4%). Then, a series of sections 10 μm thick were prepared therefrom. The thus prepared sections were reacted with a ligand (a solution of Compound 26 and thioflavin in 50% EtOH) for 3 min. Then, the sections were washed with 50% EtOH (1 min×twice) and observed under a fluorescence microscope. Further, using adjacent sections, immunostaining was performed by conventional methods with anti-amyloid (3(1-42) antibody.
Fluorescence staining was performed on brain sections from Alzheimer's disease model mouse (Tg2576) utilizing the fluorescence property of Compound 26 (FIG. 9).

For series [6], the system named is senile plaque amyloid on hippocampal sections from Alzheimer's disease patients. Description: In vitro autoradiography and immunostaining on brain sections from Alzheimer's disease patients (Example 2). The series is classed as binding, human. To be noted: AD patient brain sections, FIG. 10. The protocol:
Hippocampal sections (5 μm thick) from Altzheimer's disease patients were dewaxed by washing with xylene ((5 min×2) and with 100% EtOH, 100% EtOH, 95% EtOH, 85% EtOH and 70% EtOH (1 min×1 for each). After air-drying, the sections were reacted with a ligand (40% EtOH solution) for 1 h. Then, the sections were washed with saturated aqueous lithium carbonate solution in 40% EtOH (2 min×2), with 40% EtOH (2 min×2) and with water (30 sec×1), and immobilized on imaging plates for 24 h. Subsequently, the sections were analyzed with BAS2500. Further, using adjacent sections, immunostaining was performed by conventional methods with anti-amyloid β(1-42) antibody.
Autoradiography was performed on brain sections from Altzheimer's disease patients with [^125I]26 (FIG. 10).

The structures appear in SMILES notation. Bounds are passed on as bounds.

T2 sequence (P05067 672-713 limits assumed): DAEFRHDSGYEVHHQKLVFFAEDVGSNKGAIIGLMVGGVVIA
T1 sequence (P05067 672-713 limits assumed): as above

Take `O=C1/C(=C/c2ccc(OCCO)cc2)Oc2ccc([125I])cc21` [[125I]26]: the “Radioactivity distribution, Blood, Mean” value was 4.97 % ID/g in series [1] (2 min after injection), 3.88 % ID/g in series [1] (10 min after injection), 2.38 % ID/g in series [1] (30 min after injection) and 1.24 % ID/g in series [1] (60 min after injection). In addition, the “Radioactivity distribution, Brain, Mean” value in series [1] (2 min after injection) was 4.51 % ID/g; in series [1] (10 min after injection) it was 1.49 % ID/g; in series [1] (30 min after injection) it was 0.24 % ID/g; in series [1] (60 min after injection), 0.09 % ID/g.

Regarding `COc1ccc(/C=C2\Oc3ccc(I)cc3C2=O)cc1` [Compound 17, 5-iodo-4′-methoxyaurone], in series [2], the “intensity of the binding property to Ab aggregates (order)” value (“intensity of the binding property” for short) was “[^125I] Compound 17>[^125I] Compound 20”.

With `O=C1/C(=C/c2ccc(O)cc2)Oc2ccc(I)cc21` [Compound 20, 5-iodo-4′-hydroxyaurone], in series [2], the “intensity of the binding property” value was “>[^125I] Compound 20”.

A word on the Ki: it is a measure of affinity in units of concentration, obtained from inhibition or displacement. The low end stands for higher affinity, the high end for lower affinity. Turning to `O=C1/C(=C/c2ccc(OCCOCCOCCO)cc2)Oc2ccc(I)cc21` [Compound 28, (Z)-2-(4-(2-(2-(2-hydroxyethoxy)ethoxy)ethoxy)benzylidene)-5-iodobenzofuran-3(2H)-one], the affinity in series [3], expressed as Ki, was 2.56 ± 0.31 nM. Also, the “migration of radioactivity to the brain” value in series [4] was 2.4-4.5 % ID/g.

For `O=C1/C(=C/c2ccc(OCCO)cc2)Oc2ccc(I)cc21` [Compound 26, (Z)-2-(4-(2-hydroxyethoxy)benzylidene)-5-iodobenzofuran-3(2H)-one], the inhibitory constant (Ki) in series [3] is 1.05 ± 0.06 nM. Also, the “fluorescence image on brain sections” value in series [5] was “consistent with the fluorescence image of thioflavin S on adjacent section and the immunostaining image of anti-amyloid antibody on adjacent section”. In series [6], the “radioactivity in autoradiography vs immunostaining” value was “observed at the positive site of immunostaining with anti-amyloid antibody”. The “migration of radioactivity to the brain” value in series [4] is reported as 2.4-4.5 % ID/g.

As to `O=C1/C(=C/c2ccc(OCCOCCOCCO)cc2)Oc2ccc([125I])cc21` [[125I]28], the “Radioactivity distribution, Blood, Mean” value worked out at 4.75 % ID/g in series [1] (2 min after injection), 2.70 % ID/g in series [1] (10 min after injection), 1.13 % ID/g in series [1] (30 min after injection) and 0.55 % ID/g in series [1] (60 min after injection). Moreover, the “Radioactivity distribution, Brain, Mean” value in series [1] (2 min after injection) is 2.81 % ID/g; in series [1] (10 min after injection), 0.84 % ID/g; in series [1] (30 min after injection), 0.18 % ID/g; in series [1] (60 min after injection) it was 0.08 % ID/g.

With `CNc1ccc(/C=C2\Oc3ccc(I)cc3C2=O)cc1` [Compound 12, 5-iodo-4′-methylaminoaurone], the “intensity of the binding property” value in series [2] was “[^125I] Compound 12=[^125I] IMPY”.

Turning to `O=C1/C(=C/c2ccc(OCCOCCO)cc2)Oc2ccc([125I])cc21` [[125I]27], the “Radioactivity distribution, Blood, Mean” value in series [1] (2 min after injection) worked out at 3.61 % ID/g; in series [1] (10 min after injection) it was 5.18 % ID/g; in series [1] (30 min after injection), 1.11 % ID/g; in series [1] (60 min after injection), 0.68 % ID/g. Further, the “Radioactivity distribution, Brain, Mean” value in series [1] (2 min after injection) came out at 3.69 % ID/g; in series [1] (10 min after injection), 1.53 % ID/g; in series [1] (30 min after injection), 0.38 % ID/g; in series [1] (60 min after injection) it was 0.16 % ID/g.

Consider `CN(C)c1ccc(/C=C2\Oc3ccc(I)cc3C2=O)cc1` [Compound 7, 5-iodo-4′-dimethylaminoaurone], for which, in series [2], the “binding property to Ab aggregates compared with [125I]IMPY” value was “equal or more than the binding of [^125I] IMPY” and the “intensity of the binding property” value is “[^125I] Compound 7>[^125I] Compound 12”.

With `CN(C)c1ccc(-c2cn3cc([125I])ccc3n2)cc1` [[^125I] IMPY, reference compound], the “intensity of the binding property” value in series [2] is “[^125I] IMPY>[^125I] Compound 14”.

`O=C1/C(=C/c2ccc(OCCOCCO)cc2)Oc2ccc(I)cc21` [Compound 27, (Z)-2-(4-(2-(2-hydroxyethoxy)ethoxy)benzylidene)-5-iodobenzofuran-3(2H)-one]: the Ki in series [3] was determined as 3.36 ± 0.29 nM. Also, the “migration of radioactivity to the brain” value in series [4] is given as 2.4-4.5 % ID/g.

As to `Nc1ccc(/C=C2\Oc3ccc(I)cc3C2=O)cc1` [Compound 14, 5-iodo-4′-aminoauron], the “intensity of the binding property” value in series [2] was “[^125I] Compound 14=[^125I] Compound 17”.

The values are drawn from patent US20100003191A1, “AURONE DERIVATIVE-CONTAINING COMPOSITION FOR DIAGNOSIS” (NAGASAKI UNIVERSITY, priority 2006, published 2010).
